{"source": "a melting point compilation (Tetko et al.; mined from patent text by program, amines drawn as free bases though some values may be those of a salt)", "data": [{"units": {"melting point": "°C"}, "values": [{"smiles": "CN1CC(=O)Nc2ccc(Cl)cc2C1=O", "melting point": "> 250"}, {"smiles": "COc1ccc(CCNCC(O)c2ccccc2C)cc1OC", "note": "(stereo not drawn)", "melting point": "91 to 94"}, {"smiles": "Cc1cccc(NC(=O)NC(C(=O)N(CC(=O)OC(C)(C)C)c2ccccc2)c2ccccc2)c1", "note": "(racemic)", "melting point": 178}, {"smiles": "CC(C)(C)c1cc(OCc2ccc(C#N)cc2)cc(C(C)(C)C)c1O", "melting point": "166 to 169"}, {"smiles": "CCOC1C=CC(=O)N1S(=O)(=O)c1ccccc1", "note": "(stereo not drawn)", "melting point": "117 to 119"}, {"smiles": "CC(C)NCC(O)COc1ccc(NC(=O)C(C)C)cc1C#N", "note": "(stereo not drawn)", "melting point": "126 to 127"}, {"smiles": "COc1cc(N)c(Cl)cc1C(=O)NCC1CCN(CCS(=O)(=O)Cc2ccccc2)CC1", "melting point": "220 to 223"}, {"smiles": "CC(C)(C)OC(=O)NC1CSCCNC1=O", "note": "(stereo not drawn)", "melting point": "200 to 201"}, {"smiles": "CCNCN1CN=C(c2ccc(OC)c(OC)c2)c2cc(OC)c(OC)cc21", "melting point": "128 to 130"}, {"smiles": "NS(=O)(=O)c1ccc(-c2cnn(CC(F)(F)F)c(=O)c2-c2ccc(F)cc2)cc1", "melting point": "193 to 195"}, {"smiles": "CC(C)n1nc(-c2sc(NC=O)nc2-c2ccccc2)ccc1=O", "melting point": "232 to 234"}, {"smiles": "C=CCOC(=O)NCc1noc([C@H](CS)NC(=O)OC(C)(C)C)n1", "melting point": "55 to 58"}, {"smiles": "O=C(O)c1cc2cc(Cl)ccc2nc1NC(Cc1ccc(C#Cc2ccccc2)cc1)C(=O)O", "note": "(stereo not drawn)", "melting point": "164 to 173"}, {"smiles": "O=C(c1cc2ccc(Br)cc2o1)C12CC3CC(CC(C3)C1)C2", "melting point": "128 to 130"}, {"smiles": "CC(=O)OC1CSC(Oc2cncc(-c3ccc(F)c(C#N)c3)c2)C(OC(C)=O)C1OC(C)=O", "note": "(stereo not drawn)", "melting point": 178}, {"smiles": "CCCCOc1cc(C(=O)O)cc(NC=O)c1C(=O)c1ccccc1", "melting point": "180 to 183"}, {"smiles": "Oc1cccc(C(O)CCCCCOc2cccc(Cl)c2)c1", "note": "(stereo not drawn)", "melting point": "125 to 127"}, {"smiles": "CC(=O)Nc1nc2c(Oc3cc(-c4ccc(C(F)(F)F)cc4)ncn3)cccc2s1", "melting point": "219 to 220"}, {"smiles": "Cc1cccc(Oc2ccc(Cl)cc2C(=O)O)c1", "melting point": "124 to 125"}, {"smiles": "Cc1cccc2[nH]c(-c3ccccc3F)nc12", "melting point": "161 to 162"}, {"smiles": "CC(C)(C)OC(=O)c1ccc(C(=O)N[C@H]2CN3C(=O)N(c4cc(Cl)cc(Cl)c4)C(=O)[C@@]3(Cc3ccc(Br)cc3)C2)cc1", "melting point": 112}, {"smiles": "CCCCn1ccc(-c2ccc3c(ccn3[C@H]3CC[C@H](O)CC3)c2)c(Cl)c1=O", "melting point": 191}, {"smiles": "N#CN=C(NCCC(=O)O)Nc1ccc2nonc2c1", "melting point": 92}, {"smiles": "COC(=O)C=Cc1ccc(C=CC(=O)OC)cc1", "melting point": "163 to 167"}, {"smiles": "CCc1ccccc1NC=C1C(=O)N(c2ccc(NC(C)=O)cc2)N=C1C", "melting point": 230}, {"smiles": "O=c1[nH]cc(Cl)cc1Br", "melting point": "170 to 173"}, {"smiles": "O=C1C[C@@H]2[C@@H](/C=C/[C@H](O)CCc3ccccc3)[C@H](OC(=O)c3ccc(-c4ccccc4)cc3)C[C@@H]2O1", "melting point": "81 to 83"}, {"smiles": "Cc1cc(C(C)(C)C)cc(C)c1S(F)(F)F", "melting point": 59.1}, {"smiles": "N=C(NCC(F)(F)F)NC(N)=S", "melting point": "164 to 166"}, {"smiles": "NC(=O)c1cc(OCCNCC(O)COc2ccccc2-c2cc3ccccc3[nH]2)ccc1O", "note": "(stereo not drawn)", "melting point": "93 to 95"}, {"smiles": "CCC(Oc1ccc(F)cc1F)C(=O)OC1CC(O)C=C2C=CC(C)C(CCC3CC(O)CC(=O)O3)C21", "note": "(mixture of isomers)", "melting point": "153 to 155"}, {"smiles": "Nc1ncc(Br)cc1C(=O)O", "melting point": 272}, {"smiles": "COC(=O)CCn1c(=O)n2n(c1=O)C(C(=O)OC)C=CC2", "note": "(stereo not drawn)", "melting point": "91 to 92"}, {"smiles": "CCCCCCCCCCCCCCOc1ccc(CC(=O)Cl)cc1", "melting point": "78 to 80"}, {"smiles": "CCCCCCCCCCCCCCNC1=NS(=O)(=O)c2sc(Cl)cc2N1", "melting point": "157 to 158"}, {"smiles": "Cc1ccc(-n2ccc3c(OCC(C)(C)C)nn(C)c(=O)c32)c(C)c1", "melting point": "146 to 147"}, {"smiles": "O=C(O)COc1c(Br)cc(-c2c3ccccc3c(Br)c3oc4ccccc4c23)c(O)c1Br", "melting point": "194 to 240"}, {"smiles": "NCCc1c[nH]c2cc(Cl)c(NC(N)=O)cc12", "melting point": "212 to 213"}, {"smiles": "COc1ccc(C=Nc2c3c(nc4ccccc24)CCCC3)cc1", "melting point": "160 to 162"}, {"smiles": "O=C(NCc1ccccc1Cl)c1ccc2cnccc2n1", "melting point": "120 to 121"}, {"smiles": "CCOC(=O)C(=O)Nc1nc2ccccc2s1", "melting point": "185 to 186"}, {"smiles": "CCCOc1cc(-c2cc3c(=O)[nH]c(C)nc3cc2C(C)C)ccc1Cl", "melting point": 236}, {"smiles": "Cc1ccc(Sc2cc(C#N)ccc2C#N)cc1", "melting point": 155}, {"smiles": "CCCC(Oc1ccc(Cl)c(C)c1)C(=O)NCc1ccccc1", "note": "(stereo not drawn)", "melting point": "75 to 78"}, {"smiles": "C#Cc1cc(C)c(C2=C(O)C3(CCN(OC)CC3)N(C)C2=O)c(C)c1", "melting point": "258 to 260"}, {"smiles": "O=C(O)c1ccc(-c2nc(-c3cccc(OC(F)(F)F)c3)cs2)cc1", "melting point": "233 to 234"}, {"smiles": "O=C1C(=O)c2ccccc2C2=C1SCC1(CCN(C(=O)c3cccnc3)CC1)O2", "melting point": "218 to 220"}, {"smiles": "CCC1C2C(C(=O)N1Cc1ccc3c(c1)OCO3)C(c1ccc(C#N)cc1)N1CCCC21", "note": "(stereo not drawn)", "melting point": "150 to 151"}, {"smiles": "O=C(NCCCc1ccc(CO)cc1)c1ccc(-c2ccccn2)cc1", "melting point": "118 to 120"}, {"smiles": "N#Cc1cc2c(-c3cccc(NC(=O)c4cccc(C(F)(F)F)c4)c3)ncnc2s1", "melting point": "210 to 212"}, {"smiles": "CNC(=O)[C@H](Cc1ccc(OCc2ccccc2)cc1)NC(=O)[C@H](CC(C)C)N[C@H](C)C(=O)OC", "melting point": "65 to 68"}, {"smiles": "COc1cc2c(cc1O)CC(C)(C)N=C2", "melting point": "152 to 157"}, {"smiles": "CC(C)n1nc(-c2sc(NC(=O)c3ccc(C(F)(F)F)cc3)nc2-c2ccccc2)ccc1=O", "melting point": "162 to 167"}, {"smiles": "CCOc1ccc2c3c([nH]c2c1)CC(NC(C)=O)CC3", "note": "(stereo not drawn)", "melting point": "184 to 186"}, {"smiles": "COC(=O)[C@H](CC(C)C)NC(=O)CNC(=O)[C@H](Cc1ccc(O)cc1)NC(=O)[C@H](CO)NC(=O)OCc1ccccc1", "melting point": "166 to 167"}, {"smiles": "CC(C)c1nn(Cc2ccc(Cl)cc2Cl)cc1CCCOc1cc(CCC(=O)O)n(-c2ccccc2)n1", "melting point": "105 to 107"}, {"smiles": "O=Cc1cccc(OCC(O)CN2C(=O)c3ccccc3C2=O)c1", "note": "(stereo not drawn)", "melting point": "122 to 126"}, {"smiles": "C#CC[C@H](c1nc2cc(Cl)ccc2c(=O)n1Nc1ccccc1)N(CCCN)C(=O)c1cc(F)cc(F)c1", "melting point": "165 to 167"}, {"smiles": "COc1ccc2nnc(-c3ncc([N+](=O)[O-])n3C)n2n1", "melting point": "193 to 198"}, {"smiles": "O=C(O)Cc1cccc(NC(=O)NCC(=O)N2[C@@H](c3cccc(O)c3)CC[C@H]2c2ccccc2)c1", "note": "(racemic)", "melting point": 166}, {"smiles": "O=C(O)CNC(=O)c1ccc(OCc2ccccc2)cc1OCc1ccccc1", "melting point": "168 to 169"}, {"smiles": "CCCCOc1ccc(C(=O)Nc2ccc3cc(CN4CCCC4)cnc3c2C)cc1", "melting point": 161}, {"smiles": "Cc1cc2c(cc1O)C(C1(c3ccccn3)CC1)N(C)CC2", "note": "(stereo not drawn)", "melting point": 218}, {"smiles": "CCC(=O)C(=CS(=O)(=O)c1ccc(OS(=O)(=O)c2ccc(C)cc2)cc1)N(C)C", "melting point": "148 to 150"}, {"smiles": "Cc1ccccc1S(=O)(=O)NC(N)=O", "melting point": "179 to 180"}, {"smiles": "NC(=O)c1cccc(C2OCCO2)c1", "melting point": "92 to 94"}, {"smiles": "CCOC=C(C(=O)OCC)C(=O)c1ccc(I)cc1Cl", "melting point": "237 to 240"}, {"smiles": "COC(=O)N1CCN(Cc2nc(-c3ccc4c(c3)Nc3ccccc3S4)cs2)CC1", "melting point": "180 to 182"}, {"smiles": "CNC(=O)C(Cc1ccc(OC)cc1)NC(=O)Nc1n[nH]c(=S)s1", "note": "(stereo not drawn)", "melting point": "232 to 233"}, {"smiles": "O=C(N[C@@H](Cc1ccccc1)C(=O)O)c1cccc(NC(=O)C(CS)Cc2ccccc2)c1", "note": "(stereo partly drawn)", "melting point": "83 to 85"}, {"smiles": "CC(=O)OC1CSC(Oc2cccc3c2nc(C)n3C)C(OC(C)=O)C1OC(C)=O", "note": "(stereo not drawn)", "melting point": 192}, {"smiles": "Cc1c(CCC(=O)O)cccc1C(=O)c1ccc(Cl)cc1", "melting point": "144 to 148"}, {"smiles": "CCOC(=O)COc1ccc(Cn2c(-c3ccc(OCc4ccccc4)cc3)c(C)c3cc(OCc4ccccc4)ccc32)cc1OC", "melting point": "120 to 123"}, {"smiles": "Cc1cc(C(=O)N2Cc3cccn3Cc3ccccc32)ccc1C1=CCC2CCC1C2", "note": "(stereo not drawn)", "melting point": "168 to 169"}, {"smiles": "O=C(OCCS(=O)(=O)Cc1ccccc1)c1cc(Oc2ccc(C(F)(F)F)cc2Cl)ccc1[N+](=O)[O-]", "melting point": 105}, {"smiles": "Cc1cccc(CC(N)(CF)C(=O)O)c1O", "note": "(stereo not drawn)", "melting point": 168}, {"smiles": "N#CCC#CC1(c2ccc(Cl)cc2)CC1", "melting point": "62 to 64"}, {"smiles": "CC(C)(C)CC(C)(C)NCC(=O)N1CC2C(C1)C2Nc1ncc2cc(-c3ccccc3Cl)c(=O)n(C3CC3)c2n1", "note": "(stereo not drawn)", "melting point": "218 to 220"}, {"smiles": "CCOC(=O)c1c(C)[nH]c2ccc(C(=O)c3c(C)c(OC)c4ccccn34)cc2c1=O", "melting point": 257}, {"smiles": "COc1cccc(CCc2ccccc2C(=O)O)c1", "melting point": "119 to 122"}, {"smiles": "COC(=O)C1=C(CN2CCN(C)CC2)Nc2ccnc(OC(C)C)c2C1c1ccccc1", "note": "(stereo not drawn)", "melting point": "149 to 151"}, {"smiles": "COc1ccccc1CN1CCN(CCN2CCC(O)(c3ccccc3)CC2)C(c2ccccc2)C1", "note": "(stereo not drawn)", "melting point": "63 to 65"}, {"smiles": "CC(C)=CCOc1ccc(C(=O)C=Cc2c[nH]c3ccccc23)c(O)c1", "melting point": "228 to 230"}, {"smiles": "O=C(CN1CC=C(c2c[nH]c3cc(Cl)ccc23)CC1)Nc1ccccn1", "melting point": "202 to 204"}, {"smiles": "Cc1ccc(C)n1-c1ccc(CC#N)cc1", "melting point": "112 to 113"}, {"smiles": "COc1cc(C=O)c(OC)c2ccccc12", "melting point": "120 to 123"}, {"smiles": "CON1C=C2N=NC3=C(N(CC(C)C)CC(C)=C3)N2C1", "melting point": "144 to 145"}, {"smiles": "O=C(OCCn1ccnc1)c1ccccc1O", "melting point": "74 to 75"}, {"smiles": "CC(C)Nn1c(CO)nc2c(N)nc3cccnc3c21", "melting point": "242 to 243"}, {"smiles": "CCOc1cc(-c2ncc3[nH]c4ccc(OCc5ccccc5)cc4c3c2COC)no1", "melting point": "139 to 140"}, {"smiles": "C(#Cc1ccc2[nH]ccc2c1)CCN1CC=C(c2ccccc2)CC1", "melting point": "173 to 174"}, {"smiles": "O=C(OCC1CC1)c1ncn2c1[C@@H]1CCCN1C(=O)c1c(I)cccc1-2", "melting point": "164 to 165"}, {"smiles": "COC(=O)c1sc2ccc(NC(C)=O)cc2c1N", "melting point": 248}, {"smiles": "Cc1nc2ccccc2nc1Oc1ccc(OCc2ccccc2)cc1", "melting point": "99 to 102"}, {"smiles": "O=C(c1sc2c(ccc(=O)n2-c2ccccc2)c1Br)N1CC(OC2CCCCO2)C1", "note": "(stereo not drawn)", "melting point": 162}, {"smiles": "CC(C)(CO)NS(=O)(=O)c1cccc(NC(=O)c2cnn3c(C(F)(F)F)cc(-c4ccc(C(F)(F)F)c(F)c4)nc23)c1", "melting point": 221}, {"smiles": "COc1cc2c(cc1OC)CN(CCCOc1ccc(NC(=O)c3cccc4c(=O)c5cccc(C)c5[nH]c34)c(C)c1)CC2", "melting point": 160}, {"smiles": "Cc1nc(C)n(-c2cc(C)c3[nH]c(=O)ccc3c2)c1C#N", "melting point": "334 to 337"}]}]}
